Here are results for one compound from patent US20110319484A1, “NEUROPROTECTIVE COMPOUNDS” (Parque Tecnologico de Ciencias de la Salud, priority 2009, published 2011).

The subject of one assay is SK-N-MC cells. Kind of assay: Inhibition of camptothecin-induced apoptosis by flow cytometry (propidium iodide, sub-G1). The assay is classed as cell-based, human. The following applies: Homo sapiens, camptothecin 50 μM, 6 h, at 4 μg/ml, read-out: maximum inhibition of apoptosis relating to apoptosis caused by camptothecin (flow cytometry). The method, then: To that end, the inhibition caused by the NST0005 compound of apoptosis caused by the treatment with camptothecin (Campt) was analyzed. The SK-N-MC cells, not exceeding 15 passages, were seeded on 6-well plates treated for adherent cells with a cell concentration of 8×10^5 cells/well; 2 wells of the plate were seeded for each condition of the assay.
After 24 h of cell incubation at 37° C. and 5% CO2 the cell treatments were performed with 2 ml of total volume for the following conditions: (i), control (culture medium); (ii), camptothecin [50 μM]; (iii) camptothecin [50 μM] and Z-VAD-fmk [50 μM] (Alexis), as positive control of inhibition; and (iv), 50 μM camptothecin with NST0005 at different concentrations [4, 10, 40 and 100 μg/ml].
The cells were incubated (at 37° C. and 5% CO2) with these treatments for 6 h, after which time they were pooled together with their culture medium and centrifuged at 300×g for 5 minutes. The medium was removed, a washing was performed with phosphate buffered saline (PBS) and they were fixed for 2 minutes with 500 μl of 70% ethanol at −20° C. […] After this time, they were analyzed by flow cytometry, comparing the fluorescence of the propidium iodine against the amount of DNA. The percentage of apoptosis was measured on the sub-G1 region of each of the conditions. […]

For the next assay, the system named is cerebral cortex of mice. Kind of assay: Neuroprotection in the cerebral cortex (lateral entorhinal and amygdaloid nuclei) of mice after kainate. The assay is classed as in vivo, mice (FVB/NHan). The following applies: KA 25 mg/kg i.p., NST0005 50 mg/kg i.p. daily. How it is done:
(§1) All the animals included during the experimental process were 12-week old males of the FVB/NHan strain. The experiments were carried out strictly following the Guidance on the Operation of Animals (Scientific Procedures, Act. 1986). The animals had their respective quarantine period and were treated with maximum precaution to minimize possible contaminations for inoculations and handling.
(§2) Sixteen animals were used in this assay and the treatments were all carried out by intraperitoneal (i.p.) route with a volume of 100 μl, according to the following regimens: • i) PBS+PBS+PBS regimen: 4 animals were initially treated with PBS with a daily dose for 2 days, on the second day the animals were inoculated with a new dose of PBS and for the next 7 days with a daily dose of PBS. • ii) PBS+KA+PBS regimen: 6 animals were initially treated with PBS with a daily dose for 2 days, on the second day the animals were inoculated with a dose of kainate at 25 mg/kg and for the next 7 days with a daily dose of PBS. • iii) NST0005+KA+NST0005 regimen: 6 animals were initially treated with NST0005 with a daily dose of 50 mg/kg for 2 days, on the second day the animals were inoculated with a dose of kainate at 25 mg/kg and for the next 7 days with a daily dose of NST0005 at 50 mg/kg.
Once the treatment period of 7 days ended, the animals were sacrificed and the brains were dissected. […]

The next assay deals with hippocampus of mice. Kind of assay: Neuroprotection in the hippocampus of mice after kainate (histopathology). It counts as in vivo, mice (FVB/NHan). The following applies: KA 25 mg/kg i.p., NST0005 50 mg/kg i.p. daily, 2 days before and 7 days after KA. How it is done: as §1, §2
Once the treatment time of 7 days ended, the animals were sacrificed and the brains were dissected. The brain samples were processed and included in paraffin. Fluoro-Jade B® (FJB) fluorescent stain was used in 5 μm thick sections to analyze the neurodegeneration of the hippocampus.
Based on the neuroprotection results shown in the previous section, the inventors decided to investigate if the neuroprotective effect of NST0005 in the hippocampus of mice against the administration of kainate (KA) was accompanied by the protection of another sign of neuronal damage such as neuritic dystrophy. To that end, the same experimental scheme was used as in section 6.1. Once the treatment period of 7 days ended, the animals were sacrificed and the brains were dissected. The brain samples were processed and included in paraffin. Bright field immunohistochemistry of the microtubule-associated protein 2 (MAP2) was used in 5 μm thick sections to analyze the neuritic dystrophy of the hippocampus.
Based on the neuroprotection results shown in the previous sections, the inventors decided to investigate if the neuroprotective effect of NST0005 in the hippocampus of mice against the administration of kainate (KA) was accompanied by the inhibition of neuronal death by apoptosis. To that end, the same experimental scheme was used as in section 6.1. Once the treatment period of 7 days ended, the animals were sacrificed and the brains were dissected. The brain samples were processed and included in paraffin. […]

`C[C@H]1C=C2C=C[C@H](C)[C@H](CC[C@@H]3C[C@@H](O)CC(=O)O3)[C@H]2[C@@H](OC(=O)C(C)(C)C)C1` [NST0005]: the inhibition at 4 µg/mL in the assay on SK-N-MC cells was 17%. Besides, in the assay on cerebral cortex of mice, the “neuritic dystrophy in the cerebral cortex (MAP2)” value is “significantly reduces neuronal damage by neuritic dystrophy” and the “reactive astrogliosis in the cerebral cortex (GFAP)” value is given as “significantly prevents reactive astrogliosis”. For the same compound, in the assay with hippocampus of mice, the “neuritic dystrophy in the hippocampus (MAP2)” value is on record as “significantly prevents the neuritic dystrophy”; the “neurodegeneration in the hippocampus (Fluoro-Jade B)” value is recorded as “completely protected against the neurodegeneration”; the “neuronal death by apoptosis in the hippocampus (Acridine Orange)” value was “prevents neuronal damage, neurodegeneration and also neuronal death by apoptosis”; the “neuronal death by necrosis in the hippocampus (hematoxylin and eosin)” value was “substantially prevents neuronal death by necrosis”.
